Structures can show the parent of a compound that is named as a salt. Where two headings read alike, the source gives them in different places.
Columns and labels:
human FLAP = human FLAP (Homo sapiens (Human), UniProt P20292); assay: FLAP binding assay (HTRF format)
Method in brief: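 HTRF ratio read-out; two independent plates, samples in duplicate on each, values averaged across plates.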

[1] = system: leukotriene pathway in human whole blood (LTB4 levels); assay: Human whole blood assay (A23187-stimulated LTB4); format: cell-based; conditions: Homo sapiens, read-out: LTB4 IC50 1:1
Method in brief: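 Heparinised human whole blood diluted 1:1 in RPMI, pre-incubated 15 min at 37° Celsius with compound, then stimulated with A23187 (7 μg/mL) for 30 min at 37° Celsius. Plasma LTB4 measured by immunoassay kit; IC50 from 4-parameter fit; single replicate per plate, at least one healthy donor.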

[2] = human FLAP wild type, HTRF format, average of two plates, duplicates
[3] = human whole blood diluted 1:1 in RPMI, A23187-stimulated LTB4
[4] = human whole blood diluted 1:1, A23187-stimulated
[5] = read-out: FLAP Binding wild type HTRF Ki

Chain of human FLAP (P20292 whole entry): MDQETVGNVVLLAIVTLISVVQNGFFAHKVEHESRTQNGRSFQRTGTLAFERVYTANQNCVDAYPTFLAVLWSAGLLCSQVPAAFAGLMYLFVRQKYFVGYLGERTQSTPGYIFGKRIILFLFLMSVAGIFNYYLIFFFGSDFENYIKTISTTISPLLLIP

Compound | Ki (human FLAP; [2]) [nM] | IC50 [1, 3] [nM] | Ki (human FLAP; wild type FLAP, HTRF format) [nM] | IC50 [1, 4] [nM] | Ki (human FLAP; [5]) [nM]
Nc1ccc(-c2ccc(-c3ccccc3S(=O)(=O)N3C[C@@H]4C[C@H]3CO4)cc2F)cn1 [Example 356, 5-(2′-((1S,4S)-2-Oxa-5-azabicyclo[2.2.1]heptan-5-ylsulfonyl)-3-fluoro-[1,1′-biphenyl]-4-yl)pyridin-2-amine] | 32 | 107 |  |  | 
Nc1cnc(-c2ccc(-c3ccccc3C(=O)N3CCOC(C(F)(F)F)C3)cc2F)cn1 (racemic) [Example 754, racemic 5-(3-Fluoro-2′-{[2-(trifluoromethyl)morpholin-4-yl]carbonyl}biphenyl-4-yl)pyrazin-2-amine] |  |  | 69.9 | 377 | 
CC(C)C[C@H](NS(=O)(=O)c1ccccc1-c1ccc(-c2cnc(N)cn2)c(F)c1)C(N)=O [Example 168, (S)-2-(4′-(5-Aminopyrazin-2-yl)-3′-fluoro-[1,1′-biphenyl]-2-ylsulfonamido)-4-methylpentanamide] | 14 | 135 |  |  | 
Nc1ccc(-c2ccc(-c3ccccc3S(=O)(=O)N3CCC(CCO)CC3)cc2F)cn1 [Example 359, 2-(1-((4′-(6-Aminopyridin-3-yl)-3′-fluoro-[1,1′-biphenyl]-2-yl)sulfonyl)piperidin-4-yl)ethanol] | 4 | 54 |  |  | 
Nc1cnc(-c2ccc(-c3ccccc3S(=O)(=O)N(CCO)C3CCCCC3)cc2F)cn1 [Example 136, 4′-(5-Aminopyrazin-2-yl)-N-cyclohexyl-3′-fluoro-N-(2-hydroxyethyl)biphenyl-2-sulfonamide] | 1 | 15 |  |  | 
CC1(NS(=O)(=O)c2ccccc2-c2ccc(-c3cnc(N)cn3)c(F)c2)CCC1 [Example 11, 4′-(5-Aminopyrazin-2-yl)-3′-fluoro-N-(1-methylcyclobutyl)biphenyl-2-sulfonamide] | 2 | 15 |  |  | 
O=S(=O)(c1ccccc1-c1ccc(-c2cnc3[nH]ccc3c2)c(F)c1)C1CC1 [Example 365, 5-[2′-(Cyclopropylsulfonyl)-3-fluorobiphenyl-4-yl]-1H-pyrrolo[2,3-b]pyridine] | 3 | 60 |  |  | 
Nc1ncc(-c2ccc(-c3ccccc3S(=O)(=O)N3CCC(F)(F)C3)cn2)cn1 [Example 680, 5-(5-{2-[(3,3-Difluoropyrrolidin-1-yl)sulfonyl]phenyl}pyridin-2-yl)pyrimidin-2-amine trifluoroacetic acid salt] |  |  |  | 1050 | 610
Nc1cnc(-c2ccc(-c3ccccc3O)cc2F)cn1 [Example 476, 4′-(5-Aminopyrazin-2-yl)-3′-fluorobiphenyl-2-ol] |  |  | 32 | 891 | 
Nc1cnc(-c2ccc(-c3ccccc3S(=O)(=O)N3CC(O)C3)cc2F)cn1 [Example 119, 1-{[4′-(5-Aminopyrazin-2-yl)-3′-fluorobiphenyl-2-yl]sulfonyl}azetidin-3-ol] | 3 | 22 |  |  | 
Nc1cnc(-c2ccc(-c3ccccc3NS(=O)(=O)c3ccccc3)cc2F)cn1 [Example 479, N-[4′-(5-Aminopyrazin-2-yl)-3′-fluorobiphenyl-2-yl]benzenesulfonamide] |  |  | 6 | 571 | 
O=S(=O)(NCCO)c1ccccc1-c1ccc(-c2cnc3[nH]ccc3c2)c(F)c1 [Example 366, 3′-Fluoro-N-(2-hydroxyethyl)-4′-(1H-pyrrolo[2,3-b]pyridin-5-yl)biphenyl-2-sulfonamide] | 1 | 40 |  |  | 
O=S(=O)(c1ccccc1-c1ccc(-c2cnc3[nH]ccc3n2)c(F)c1)N1CCCCC1 [Example 374, 2-[3-Fluoro-2′-(piperidin-1-ylsulfonyl)biphenyl-4-yl]-5H-pyrrolo[2,3-b]pyrazine] | 1 | 11 |  |  | 
C[C@H](NS(=O)(=O)c1ccccc1-c1ccc(-c2cnc(N)nc2)c(F)c1)C(F)(F)F [Example 297, 4′-(2-Aminopyrimidin-5-yl)-3′-fluoro-N-[(1S)-2,2,2-trifluoro-1-methylethyl]biphenyl-2-sulfonamide trifluoroacetic acid salt] |  | 45 |  |  | 5
CC(C)(C)NS(=O)(=O)c1ccccc1-c1ccc(-c2cnc3[nH]cnc3c2)c(F)c1 [Example 432, N-tert-Butyl-3′-fluoro-4′-(3H-imidazo[4,5-b]pyridin-6-yl)biphenyl-2-sulfonamide] |  |  | 4 | 19 | 
Nc1ncc(-c2ccc(-c3ccccc3S(=O)(=O)N[C@H]3CCCNC3=O)cc2F)cn1 [Example 267, 4′-(2-Aminopyrimidin-5-yl)-3′-fluoro-N-[(3S)-2-oxopiperidin-3-yl]biphenyl-2-sulfonamide trifluoroacetic acid salt] |  | 350 |  |  | 154
CC(C)(C)NS(=O)(=O)c1ccccc1-c1ccc(-c2cnc(N)c(Br)n2)c(F)c1 [Example 442, 4′-(5-Amino-6-bromopyrazin-2-yl)-N-tert-butyl-3′-fluorobiphenyl-2-sulfonamide] |  |  | 1 | 9 | 

Compound | Ki (human FLAP; [2]) [nM] | IC50 [1, 3] [nM] | Ki (human FLAP; wild type FLAP, HTRF format) [nM] | IC50 [1, 4] [nM] | Ki (human FLAP; [5]) [nM]
CC(C)(C)NS(=O)(=O)c1ccccc1-c1ccc(-c2cnc3[nH]ccc3c2)c(F)c1 [Example 367, N-tert-Butyl-3′-fluoro-4′-(1H-pyrrolo[2,3-b]pyridin-5-yl)biphenyl-2-sulfonamide] | 1 | 6 |  |  | 
CC(NS(=O)(=O)c1ccccc1-c1ccc(-c2cnc(N)cn2)c(F)c1)C(F)(F)F (racemic) [Example 8, racemic 4′-(5-Aminopyrazin-2-yl)-3′-fluoro-N-(2,2,2-trifluoro-1-methylethyl)biphenyl-2-sulfonamide] | 1 | 12 |  |  | 
CC(C)(CO)NS(=O)(=O)c1ccccc1-c1ccc(-c2cnc(N)nc2)c(F)c1 [Example 280, 4′-(2-Aminopyrimidin-5-yl)-3′-fluoro-N-(2-hydroxy-1,1-dimethylethyl)biphenyl-2-sulfonamide trifluoroacetic acid salt] |  | 87 |  |  | 3
CN(C)S(=O)(=O)c1ccccc1-c1ccc(-c2cnc(N)cn2)c(F)c1 [Example 42, 4′-(5-Aminopyrazin-2-yl)-3′-fluoro-N,N-dimethylbiphenyl-2-sulfonamide] | 11 | 149 |  |  | 
Nc1cnc(-c2ccc(-c3ccccc3-c3ccc(-c4cnc(N)cn4)c(F)c3)cc2F)cn1 [Example 602, 5,5′-(3,3″-Difluoro-1,1′:2′,1″-terphenyl-4,4″-diyl)dipyrazin-2-amine] |  |  | 0.6 | 16.7 | 
CCSCc1ccccc1-c1ccc(-c2cnc(N)cn2)c(F)c1 [Example 234, 5-{2′-[(Ethylsulfanyl)methyl]-3-fluorobiphenyl-4-yl}pyrazin-2-amine formic acid salt] | 25 | 238 |  |  | 
Nc1cnc(-c2ccc(-c3cccnc3OC3CCOCC3)cc2F)cn1 [Example 653, 5-{2-Fluoro-4-[2-(tetrahydro-2H-pyran-4-yloxy)pyridin-3-yl]phenyl}pyrazin-2-amine] |  |  | 17.3 | 527 | 
Nc1cnc(-c2ccc(-c3cccnc3S(=O)(=O)C3CCS(=O)(=O)CC3)cc2F)cn1 [Example 820, 4-((3-(4-(2-Aminopyrazin-5-yl)-3-fluorophenyl)pyridine-2-yl)sulfonyl)tetrahydro-2H-thiopyran 1,1-dioxide] |  |  | 3.3 | 41.6 | 
Cn1c(S(=O)(=O)c2ccccc2-c2ccc(-c3cnc(N)nc3)c(F)c2)nc2ccccc21 [Example 320, 5-{3-Fluoro-2′-[(1-methyl-1H-benzimidazol-2-yl)sulfonyl]biphenyl-4-yl}pyrimidin-2-amine] | 129 | 1080 |  |  | 
CCN(CC)C(=O)c1ccccc1-c1ccc(-c2cnc(N)cn2)c(F)c1 [Example 503, 4′-(5-Aminopyrazin-2-yl)-N,N-diethyl-3′-fluorobiphenyl-2-carboxamide] |  |  | 14 | 92 | 
CC(C)(C)NS(=O)(=O)c1ccccc1-c1ccc(-c2cnc3[nH]cnc3n2)c(F)c1 [Example 447, N-tert-Butyl-3′-fluoro-4′-(1H-imidazo[4,5-b]pyrazin-5-yl)biphenyl-2-sulfonamide] |  |  | 3 | 144 | 
CCN(CC)S(=O)(=O)c1ccccc1-c1ccc(-c2ccc(N)nc2)c(F)c1 [Example 343, 4′-(6-Aminopyridin-3-yl)-N,N-diethyl-3′-fluoro-[1,1′-biphenyl]-2-sulfonamide] | 4 | 57 |  |  | 
CC[C@H](CO)NS(=O)(=O)c1ccccc1-c1ccc(-c2cnc(N)cn2)c(F)c1 [Example 86, 4′-(5-Aminopyrazin-2-yl)-3′-fluoro-N-[(1R)-1-(hydroxymethyl)propyl]biphenyl-2-sulfonamide] | 3 | 27 |  |  | 
CC(C)COc1ncccc1-c1ccc(-c2cnc3[nH]ccc3n2)c(F)c1 [Example 398, 2-{2-Fluoro-4-[2-(2-methylpropoxy)pyridin-3-yl]phenyl}-5H-pyrrolo[2,3-b]pyrazine] |  |  | 34 | 1130 | 
C[C@H](CO)NC(=O)c1cc(C(F)(F)F)ccc1-c1ccc(-c2cnc(N)cn2)c(F)c1 [Example 785, 2-[4-(5-Aminopyrazin-2-yl)-3-fluoro-phenyl]-N-[(1R)-2-hydroxy-1-methyl-ethyl]-5-(trifluoromethyl)benzamide] |  |  | 8.5 | 57.5 | 
Nc1ncc(-c2ccc(-c3ccccc3N3CCCS3(=O)=O)cc2F)cn1 [Example 858, 5-[2′-(1,1-Dioxidoisothiazolidin-2-yl)-3-fluorobiphenyl-4-yl]pyrimidin-2-amine] |  |  | 210 | 370 | 
CN1CCN(S(=O)(=O)c2cc(C(F)(F)F)ccc2-c2ccc(-c3cnc(N)nc3)c(F)c2)CC1 [Example 328, 5-{3-Fluoro-2′-[(4-methylpiperazin-1-yl)sulfonyl]-4′-(trifluoromethyl)biphenyl-4-yl}pyrimidin-2-amine] | 15 | 119 |  |  | 

— patent US9079866B2, “Flap modulators” (JANSSEN PHARMACEUTICA NV, priority 2013, dated 2015)
